Each structure is given as a SMILES string. Read-outs that look alike come from different tables or passages of the source.

The results in this text go back to patent US20050250677A1, “Glycopeptide antibiotic derivatives” (priority 2002, published 2005).

One data set concerns VZV (wild-type strains). In words: Anti-VZV assay (wild-type strains): virus-induced cytopathicity in HEL cell cultures. It counts as cell-based, varicella-zoster virus. The following applies: HEL cell cultures. For orientation: Cytopathic effects are the visible damage that an infection or toxin causes in cultured cells.
For another data set, the system named is BVDV-1 (strain PE515). In words: Anti-BVDV assay in MDBK cells (MTS). It counts as cell-based, bovine viral diarrhea virus. The protocol: Cells and viruses: Madin-Darby Bovine Kidney (MDBK) cells were maintained in Dulbecco's modified Eagle medium (DMEM) supplemented with BVDV-free 5% fetal calf serum (DMBM-FCS) at 37° C. in a humidified, 5% CO2 atmosphere. BVDV-1 (strain PE515) was used to assess the antiviral activity in MDBK cells. Vero cells (ATCC CCL81) were maintained in MEM medium supplemented with 10% inactivated calf serum, 1% L-glutamine and 0.3% bicarbonate.
Anti-BVDV assay: Ninety-six-well cell culture plates were seeded with MDBK cells in DMEM-FCS so that cells reached 24 hr later confluency. Then medium was removed and serial 5-fold dilutions of the test compounds were added in a total volume of 100 ul, after which the virus inoculum (100 ul) was added to each well. […] Uninfected cells and cells receiving virus without compound were included in each assay plate. After 5 days, medium was removed and 90 μt of DMEM-FCS and 10 ul of MTS/PMS solution (Promega) was added to each well. Following a 2 hr incubation period at 37° C. the optical density of the wells was read at 498 nm in a microplate reader.

Data set [1] relates to HEL cells. The following applies: anti-VZV table.
The test system of data set [2] is HEL cells. The following applies: read-out: CC50 (HEL); HEL cells; anti-VZV table.

With `CCCCCCCCCCN1CCN(C(=O)C2NC(=O)C3NC(=O)C(NC(=O)C4NC(=O)C5NC(=O)C(Cc6ccc(c(Cl)c6)Oc6cc4cc(c6O)Oc4ccc(cc4Cl)C3O)NC(=O)C(N)c3ccc(O)c(c3)Oc3cc(O)cc5c3)c3ccc(O)c(c3)-c3c(O)cc(O)cc32)CC1` (stereo not shown) [Compound 126], the EC50 in the data set with VZV (wild-type strains) (VZV strain OKA, read-out: EC50 VZV (OKA)) was determined as 1 µM; with VZV (wild-type strains) (VZV strain YS, read-out: EC50 VZV (YS)), 0.3 µM; in the data set on BVDV-1 (strain PE515) (MDBK cells), 12 µM. Further, the “activity against BVDV” value in the data set on BVDV-1 (strain PE515) is listed as “activity”. In the data set with HEL cells [1], the “MTC (HEL)” value was over 5 to 50 µM. The “MTC (MDBK)” value with MDBK cells worked out at 60. For the same compound, the CC50 in the data set with HEL cells [2] is over 50 µM.

For orientation: EC50 means the midpoint of the concentration-response curve. What is called CC50 is the concentration giving 50% cytotoxicity.
